System: HEK293 Tau^RD-P301S-CFP/YFP expressing biosensor cells
Assay: FRET cellular transfection assay with protein constructs and tau seeds
Type: cell-based
Conditions: for rise of induced tau aggregation in transfection-positive cells: compared to non-expressing and non-transfected cells, high seeding concentrations; for susceptibility to tau seeding at low seed concentrations: concentration-dependent quantification; for number of inclusions formed per cell: higher concentrations of tau seeds, compared to the controls
Method: HEK293 Tau^RD-P301S-CFP/YFP expressing biosensor cells[109] were purchased from ATCC and cultured in DMEM medium, supplemented with 10% FBS at 37 °C, and a 5% CO2 atmosphere. Gene constructs (Supplementary Methods) were generated and onboarded to a pTwist CMV expression vector by coupling double-tagged (N-terminal HA and C-terminal FLAG recognition sites) genes of interest to an mKO2 fluorescence reporter, separated by an IRES site to enable independent co-expression (Twist Biosciences). Due to restrictions imposed by the construct synthesis, for proteins longer than 500 residues we designed shorter domain-constructs containing the homologous sequences (Supplementary Table 2). Biosensor cells were plated in poly-L-lysine coated 96-well plates (PerkinElmer) at a density of 20000 cells/well. DNA transfection (100 ng) and tau seeds transfection was performed 6 h and 48 h later, respectively, using Lipofectamine 3000 according to the manufacturer guidelines. For seed transfections specifically, a volume of 4.8 μL of the seed sample, mixed with 0.2 μL of Reagent 3000, was added to a mixture of 0.3 μL of Lipofectamine 3000 with 4.7 μL of Opti-MEM medium. Cells were fixed with 4% formaldehyde 24 h after seeding. Fixed cells were stained with DAPI (Thermofisher, D1306) following the manufacturer protocol. For immunofluorescence staining, primary antibody staining at 1:1000 dilution was performed in 1% BSA with an HA-tag (C29F4) Rabbit mAb (Cell Signalling, #3724), followed by secondary staining with an Alexa Fluor 647 goat anti-rabbit antibody (ThermoFisher, A-21245) at 1:1000 dilution in 1% BSA for 1 h. Three individual plate preparations were performed for each construct gradient as independent experiments (n = 3). High-content screening was performed at the VIB Screening Core/C-BIOS, using an Opera Phenix HCS (PerkinElmer) equipped with proper filter channels to track tau aggregation through FRET (Ex:405, Em:550), construct colocalization through HA staining (Ex:647, Em:667) and DAPI staining (Ex:405 Em:430). Image storage and segmentation analysis was performed using the Columbus Plus digital platform (PerkinElmer). Quantification of colocalization was performed using Coloc2 in ImageJ.

**Q.** With “IDE: insulin degrading enzyme, transiently expressed construct with homology to PHF6” as the molecule, how does the “rise of induced tau aggregation in transfection-positive cells” value (from here on “rise of induced tau aggregation”) read?
**A.** 30%

**Q.** What about the “susceptibility to tau seeding at low seed concentrations” value of the same molecule?
**A.** vulnerable to tau seeding even at picomolar concentrations

**Q.** And the “number of inclusions formed per cell” value?
**A.** doubling or higher effect

**Q.** How did the “rise of induced tau aggregation” value turn out when “DOCK3: dedicator of cytokinesis, transiently expressed construct” was run?
**A.** 30%

B1: TRA2B: Transformer-2 homolog beta, transiently expressed construct (protein, UniProt P62995 2-288, looked up)
Transformer-2 protein homolog …: SDSGEQNYGERESRSASRSGSAHGSGKSARHTPARSRSKEDSRRSRSKSRSRSESRSRSRRSSRRHYTRSRSRSRSHRRSRSRSYSRDYRRRHSHSHSPMSTRRRHVGNRANPDPNCCLGVFGLSLYTTERDLREVFSKYGPIADVSIVYDQQSRRSRGFAFVYFENVDDAKEAKERANGMELDGRRIRVDFSITKRPHTPTPGIYMGRPTYGSSRRRDYYDRGYDRGYDDRDYYSRSYRGGGGGGGGWRAAQDRDQIYRRRSPSPYYSRGGYRSRSRSRSYSPRRY
**Q.** For B1, which “rise of induced tau aggregation” value is on record?
**A.** 30%

**Q.** And the “susceptibility to tau seeding at low seed concentrations” value?
**A.** vulnerable to tau seeding even at picomolar concentrations

**Q.** And the “number of inclusions formed per cell” value?
**A.** doubling or higher effect

B2: SNTG1: Synaptotagmin-1 (SNTG1) as worded, transiently expressed construct (protein, UniProt Q9NSN8 1-517, looked up)
Gamma-1-syntrophin: MDFRTACEETKTGICLLQDGNQEPFKVRLHLAKDILMIQEQDVICVSGEPFYSGERTVTIRRQTVGGFGLSIKGGAEHNIPVVVSKISKEQRAELSGLLFIGDAILQINGINVRKCRHEEVVQVLRNAGEEVTLTVSFLKRAPAFLKLPLNEDCACAPSDQSSGTSSPLCDSGLHLNYHPNNTDTLSCSSWPTSPGLRWEKRWCDLRLIPLLHSRFSQYVPGTDLSRQNAFQVIAVDGVCTGIIQCLSAEDCVDWLQAIATNISNLTKHNIKKINRNFPVNQQIVYMGWCEAREQDPLQDRVYSPTFLALRGSCLYKFLAPPVTTWDWTRAEKTFSVYEIMCKILKDSDLLDRRKQCFTVQSESGEDLYFSVELESDLAQWERAFQTATFLEVERIQCKTYACVLESHLMGLTIDFSTGFICFDAATKAVLWRYKFSQLKGSSDDGKSKIKFLFQNPDTKQIEAKELEFSNLFAVLHCIHSFFAAKVACLDPLFLGNQATASTAASSATTSKAKYTT
**Q.** B2 was tested. Which “number of inclusions formed per cell” value did it give?
**A.** doubling or higher effect

From paper PMC8924238, “Mapping the sequence specificity of heterotypic amyloid interactions enables the identification of aggregation modifiers” (Nature Communications, 2022)
